The assay concerns Bmi-1 protein. In words: Sandwich ELISA Assay: Bmi-1 protein level in HT-1080 cells treated with test compounds. It counts as cell-based. The essentials:
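HT-1080 cells exposed to compounds (final DMSO 0.5%) for 40-48 h at 37° C, 5% CO2, then lysed. Bmi-1 quantified by sandwich ELISA (mouse anti-Bmi-1 capture, rabbit anti-Bmi-1 detection, HRP anti-rabbit, TMB), read at OD450 with OD570 reference, against recombinant GST-Bmi-1 standard curve (0-8000 pg/mL).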
(ELISA stands for enzyme-linked immunosorbent assay.)
In turn, `CCc1nc2ccccc2n1-c1nc(N)nc(Nc2ccc(OC(F)F)c(F)c2)n1` [Cpd 37, N-[4-(difluoromethoxy)-3-fluorophenyl]-6-(2-ethyl-1H-benzimidazol-1-yl)-1,3,5-triazine-2,4-diamine] showed an EC50 of 10 to 100 nM.

For the compound `COc1cccc(Nc2nc(N)nc(-n3c(C4CC4)nc4ccccc43)n2)c1` [Cpd 154, 6-(2-cyclopropyl-1H-benzimidazol-1-yl)-N-(3-methoxyphenyl)-1,3,5-triazine-2,4-diamine], the 50% effective concentration (EC50) was in the range of 100 to 3000 nM. With `CCc1nc2cc(F)ccc2n1-c1nc(N)nc(Nc2ccc(Cl)cc2)n1` [Cpd 175, N-(4-chlorophenyl)-6-(2-ethyl-5-fluoro-1H-benzimidazol-1-yl)-1,3,5-triazine-2,4-diamine], the concentration giving a half-maximal response (EC50) lay in the range of 100 to 3000 nM. Next, `Nc1nc(Nc2ccc(OC(F)F)nc2)nc(-n2c(C(F)F)nc3ccccc32)n1` [Cpd 105, N-[6-(difluoromethoxy)pyridin-3-yl]-6-[2-(difluoromethyl)-1H-benzimidazol-1-yl]-1,3,5-triazine-2,4-diamine]: 10 to 100 nM; `Cc1nc2ncc(F)cc2n1-c1nc(N)nc(Nc2ccc(C(F)(F)F)cc2)n1` [Cpd 24, 6-(6-fluoro-2-methyl-1H-imidazo[4,5-b]pyridin-1-yl)-N-[4-(trifluoromethyl)phenyl]-1,3,5-triazine-2,4-diamine]: 100 to 3000 nM. With `COc1ccc(Nc2cnnc(-n3c(C4CC4)nc4ccccc43)n2)cc1` [Cpd 146, 3-(2-cyclopropyl-1H-benzimidazol-1-yl)-N-(4-methoxyphenyl)-1,2,4-triazin-5-amine], the EC50 was 1 to 10 nM. `Cc1nc2ccccc2n1-c1nc(N)nc(Nc2ccc(C(C)C)cc2)n1` [Cpd 167, 6-(2-methyl-1H-benzimidazol-1-yl)-N-[4-(propan-2-yl)phenyl]-1,3,5-triazine-2,4-diamine]: the EC50 lay in the range of 100 to 3000 nM. Next, `CCc1nc2ccccc2n1-c1nncc(Nc2ccc(OC)cc2)n1` [Cpd 145, 3-(2-ethyl-1H-benzimidazol-1-yl)-N-(4-methoxyphenyl)-1,2,4-triazin-5-amine]: 1 to 10 nM. Next, `Cc1nc2ccccc2n1-c1nc(NCCO)nc(Nc2cnc3ccccc3c2)n1` [Cpd 21, 2-{[4-(2-methyl-1H-benzimidazol-1-yl)-6-(quinolin-3-ylamino)-1,3,5-triazin-2-yl]amino}ethanol]: 10 to 100 nM; `CCc1nc2ccccc2n1-c1nc(Nc2ccc(OC(F)F)cc2)c[n+]([O-])n1` [Cpd 140, N-[4-(difluoromethoxy)phenyl]-3-(2-ethyl-1H-benzimidazol-1-yl)-1,2,4-triazin-5-amine 1-oxide]: 100 to 3000 nM; `CCc1nc2ccc(F)cc2n1-c1nc(N)nc(Nc2ccc(Br)cc2)n1` [Cpd 223, N-(4-bromophenyl)-6-(2-ethyl-6-fluoro-1H-benzimidazol-1-yl)-1,3,5-triazine-2,4-diamine]: 10 to 100 nM. The compound `CCc1nc2cc(F)ccc2n1-c1nc(N)nc(Nc2ccc(OC(F)F)c(F)c2)n1` [Cpd 60, N-[4-(difluoromethoxy)-3-fluorophenyl]-6-(2-ethyl-5-fluoro-1H-benzimidazol-1-yl)-1,3,5-triazine-2,4-diamine] registered an EC50 of 10 to 100 nM. The figure for `Nc1nc(Nc2ccc(OC(F)F)cc2)nc(-n2c(C3CC3)nc3ccccc32)n1` [Cpd 43, 6-(2-cyclopropyl-1H-benzimidazol-1-yl)-N-[4-(difluoromethoxy)phenyl]-1,3,5-triazine-2,4-diamine] is 10 to 100 nM. Next, `CCc1nc2ccccc2n1-c1nncc(Nc2ccc(OC(F)F)cc2)n1` [Cpd 100, N-[4-(difluoromethoxy)phenyl]-3-(2-ethyl-1H-benzimidazol-1-yl)-1,2,4-triazin-5-amine]: 10 to 100 nM. In turn, `Cc1nc2ncc(Cl)cc2n1-c1nc(NCCO)nc(Nc2ccc(C(F)(F)F)cc2)n1` [Cpd 35, 2-{[4-(6-chloro-2-methyl-1H-imidazo[4,5-b]pyridin-1-yl)-6-{[4-(trifluoromethyl)phenyl]amino}-1,3,5-triazin-2-yl]amino}ethanol] registered an EC50 of 100 to 3000 nM.

Consider `Nc1nc(Nc2ccc(OC(F)F)c(F)c2)nc(-n2c(C3CC3)nc3ccccc32)n1` [Cpd 44, 6-(2-cyclopropyl-1H-benzimidazol-1-yl)-N-[4-(difluoromethoxy)-3-fluorophenyl]-1,3,5-triazine-2,4-diamine], for which the EC50 lay in the range of 10 to 100 nM. The figure for `Cc1nc2ccccc2n1-c1nc(NO)nc(Nc2ccc(C(F)(F)F)cc2)n1` [Cpd 13, N-hydroxy-6-(2-methyl-1H-benzimidazol-1-yl)-N′-[4-(trifluoromethyl)phenyl]-1,3,5-triazine-2,4-diamine] is 100 to 3000 nM; for `Cc1nc2ccccc2n1-c1nc(N)nc(Nc2cc3ccccc3cn2)n1` [Cpd 22, N-(isoquinolin-3-yl)-6-(2-methyl-1H-benzimidazol-1-yl)-1,3,5-triazine-2,4-diamine] it is 10 to 100 nM. `Nc1nc(Nc2ccc(C(F)(F)F)c(F)c2)nc(-c2c(C(F)(F)F)nc3ccccn23)n1` [Cpd 71, N-[3-fluoro-4-(trifluoromethyl)phenyl]-6-[2-(trifluoromethyl)imidazo[1,2-a]pyridin-3-yl]-1,3,5-triazine-2,4-diamine] displayed an EC50 of 100 to 3000 nM. As for `Cc1nc2ccccc2n1-c1nc(N)nc(Nc2ccc(N3CCOCC3)cc2)n1` [Cpd 135, 6-(2-methyl-1H-benzimidazol-1-yl)-N-[4-(morpholin-4-yl)phenyl]-1,3,5-triazine-2,4-diamine], the EC50 was in the range of 100 to 3000 nM. On to `CCc1nc2ccc(F)cc2n1-c1nncc(Nc2ccc(C(F)(F)F)cc2)n1` [Cpd 131, 3-(2-ethyl-6-fluoro-1H-benzimidazol-1-yl)-N-[4-(trifluoromethyl)phenyl]-1,2,4-triazin-5-amine], for which the EC50 was in the range of 100 to 3000 nM. For the compound `CCc1nc2ccccc2n1-c1nnc(N)c(Nc2ccc(C(F)(F)F)cc2)n1` [Cpd 142, 3-(2-ethyl-1H-benzimidazol-1-yl)-N^5-[4-(trifluoromethyl)phenyl]-1,2,4-triazine-5,6-diamine], the half-maximal effective concentration (EC50) was 100 to 3000 nM.

For the compound `CCc1nc2ccccc2n1-c1nc(N)nc(Nc2ccc(Cl)cc2)n1` [Cpd 162, N-(4-chlorophenyl)-6-(2-ethyl-1H-benzimidazol-1-yl)-1,3,5-triazine-2,4-diamine], the concentration giving a half-maximal response (EC50) lay within 10 to 100 nM. The compound `CCc1nc2c(F)cccc2n1-c1nc(N)nc(Nc2ccc(Cl)c(F)c2)n1` [Cpd 215, N-(4-chloro-3-fluorophenyl)-6-(2-ethyl-4-fluoro-1H-benzimidazol-1-yl)-1,3,5-triazine-2,4-diamine] displayed an EC50 of 10 to 100 nM. The compound `CCc1nc2c(F)cc(F)cc2n1-c1nc(N)nc(Nc2ccc(OC)cc2)n1` [Cpd 188, 6-(2-ethyl-4,6-difluoro-1H-benzimidazol-1-yl)-N-(4-methoxyphenyl)-1,3,5-triazine-2,4-diamine] came in with an EC50 of 1 to 10 nM. Next, `Cc1nc2ccccc2n1-c1cnnc(Nc2ccc(OC(F)F)cc2)n1` [Cpd 202, N-[4-(difluoromethoxy)phenyl]-5-(2-methyl-1H-benzimidazol-1-yl)-1,2,4-triazin-3-amine]: 100 to 3000 nM. Next, `CCc1nc2ccccc2n1-c1nncc(Nc2ccc(C(F)(F)F)cc2)n1` [Cpd 98, 3-(2-ethyl-1H-benzimidazol-1-yl)-N-[4-(trifluoromethyl)phenyl]-1,2,4-triazin-5-amine]: 10 to 100 nM.

As a reminder, the EC50 is the concentration at which the effect is half-maximal. A low value points to a more potent agent.

Source of the values: patent publication US9975878B2, “Substituted triazine BMI-1 inhibitors” (PTC Therapeutics, Inc., priority 2013, dated 2018).
